# Measurements as given in ChEMBL document CHEMBL3046234, “Synthesis and pharmacological evaluation of some new naphthol derived aryloxy derivatives as cognition enhancers” (2012).
# What was measured:
# [1] = test system: Mus musculus; assay: Antiamnesic activity in Mus musculus (mouse) assessed as retention of memory at 3 mg/kg, ip measured after 24 hr by elevated plus maze test; type: functional; details: route intraperitoneal
# [2] = test system: Mus musculus; assay: Antiamnesic activity in Mus musculus (mouse) assessed as retention of memory at 1 mg/kg, ip measured after 24 hr by elevated plus maze test; type: functional; details: route intraperitoneal
# [3] = target: T1, Acetylcholinesterase (Mus musculus) (UniProt P21836); assay: Inhibition of AChE in Mus musculus (mouse) brain homogenate assessed as residual activity measuring acetylthiocholine iodide hydrolysis per mg protein at 10 uM after 5 min by Ellman method; type: tissue-based
# T1 sequence (whole entry): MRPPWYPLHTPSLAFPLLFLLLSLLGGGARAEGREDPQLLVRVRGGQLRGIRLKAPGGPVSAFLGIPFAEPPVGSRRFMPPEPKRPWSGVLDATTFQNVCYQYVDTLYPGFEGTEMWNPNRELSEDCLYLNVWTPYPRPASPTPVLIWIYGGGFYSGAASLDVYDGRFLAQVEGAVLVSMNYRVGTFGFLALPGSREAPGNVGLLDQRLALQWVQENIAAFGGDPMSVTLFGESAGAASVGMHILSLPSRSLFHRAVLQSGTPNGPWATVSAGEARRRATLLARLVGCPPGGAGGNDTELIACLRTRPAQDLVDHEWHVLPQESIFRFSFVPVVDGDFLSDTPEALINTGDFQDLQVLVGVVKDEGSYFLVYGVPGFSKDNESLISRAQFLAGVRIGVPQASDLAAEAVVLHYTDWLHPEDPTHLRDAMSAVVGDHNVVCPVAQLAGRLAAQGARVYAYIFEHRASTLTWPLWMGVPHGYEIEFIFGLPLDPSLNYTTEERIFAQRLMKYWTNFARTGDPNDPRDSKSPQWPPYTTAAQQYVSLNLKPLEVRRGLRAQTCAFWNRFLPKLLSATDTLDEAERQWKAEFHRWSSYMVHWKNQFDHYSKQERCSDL
# [4] = target: T1, Acetylcholinesterase (Mus musculus); assay: Inhibition of AChE in Mus musculus (mouse) brain homogenate at 10 uM after 5 min by Ellman method relative to control; type: tissue-based
Structure (SMILES),Activity [1],Activity [2],Activity [3],Imax [4]
Nc1cccc2c(OCC(=O)N3CCCC3)cccc12,74.47%,69.11%,78.5 nmol/min,31.1%
O=C(COc1cccc2ccccc12)N1CCCCC1,72.94%,63%,83.5 nmol/min,26.8%
O=C(COc1cccc2ccccc12)N1CCCC1,68.44%,51.59%,29.7 nmol/min,73.9%
NC(=O)CN1CCCC1=O [PIRACETAM],46.88%,32.47%,–,–
Nc1cccc2c(OCC(=O)N3CCOCC3)cccc12,75.35%,43.26%,55.9 nmol/min,51%
CN1CCN(C(=O)COc2cccc3ccccc23)CC1,86.18%,73.76%,15.4 nmol/min,86.5%
CN(C)C(=O)COc1cccc2ccccc12,77.78%,52.92%,76.2 nmol/min,33.1%
CCN(CC)CCOc1cccc2c(NC(=O)C(C)C)cccc12,28.1%,19.28%,56 nmol/min,26.3%
CC(C)C(=O)Nc1cccc2c(OCCN3CCOCC3)cccc12,25.43%,22.23%,59 nmol/min,22.3%
O=C(COc1cccc2ccccc12)N1CCOCC1,81.65%,62.69%,25.8 nmol/min,77.4%
